Structures are written as SMILES.

The target of this test is Prostaglandin G/H synthase 1 (Homo sapiens, UniProt P23219).
Chain of Prostaglandin G/H synthase 1 (P23219 whole entry): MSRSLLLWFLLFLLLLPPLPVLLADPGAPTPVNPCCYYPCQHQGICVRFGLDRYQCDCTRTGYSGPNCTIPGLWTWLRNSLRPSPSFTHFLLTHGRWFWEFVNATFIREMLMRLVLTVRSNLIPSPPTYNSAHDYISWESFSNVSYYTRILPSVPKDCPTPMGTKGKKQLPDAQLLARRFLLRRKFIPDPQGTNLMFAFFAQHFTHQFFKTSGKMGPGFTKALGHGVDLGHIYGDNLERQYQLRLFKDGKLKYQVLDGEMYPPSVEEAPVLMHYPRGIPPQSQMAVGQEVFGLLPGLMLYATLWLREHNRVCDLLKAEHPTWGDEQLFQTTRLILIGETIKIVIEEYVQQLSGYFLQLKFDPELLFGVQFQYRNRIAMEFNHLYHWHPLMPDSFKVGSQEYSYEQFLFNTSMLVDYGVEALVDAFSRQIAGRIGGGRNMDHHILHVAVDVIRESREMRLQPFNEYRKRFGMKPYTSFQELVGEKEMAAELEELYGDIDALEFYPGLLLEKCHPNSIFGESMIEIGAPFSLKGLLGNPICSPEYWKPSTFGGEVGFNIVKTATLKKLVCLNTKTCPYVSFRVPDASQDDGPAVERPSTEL

In the case of `Cc1ccc(-c2ncc(Cl)cc2-c2ccc(S(C)(=O)=O)cc2)cn1`, the Ki (usually the dissociation constant of the complex between target and ligand, obtained from inhibition or displacement) is greater than 10 µM.

Source of the values: BindingDB's records for doi:10.1016/S0002-8703(03)00398-3 (University of Maryland Hospital, 2003).
